Measurements reported in PubChem BioAssay (NCI).
Several values for one entry are separate records, joined by “and”; a condition that tells them apart may be missing. Equal values may be shown once.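 Growth conditions: 96-well plates. Treatment: test compound, 48 hours, 5 concentrations. Analysis: linear interpolation between bracketing concentrations; unreached endpoints set to highest concentration. At the GI50, growth is halved. The concentration for full growth arrest is given as TGI.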

Legend:
Experiment in all cases: NCI tumour cell line growth inhibition, 48 h
[1] = test system: COLO 205 colon
[2] = test system: MOLT-4 leukemia
[3] = test system: SNB-78 CNS
[4] = test system: HOP-92 NSCLC
[5] = test system: P388 leukemia
[6] = test system: UACC-257 melanoma
[7] = test system: SK-MEL-5 melanoma
[8] = test system: MDA-N
[9] = test system: SK-OV-3 ovarian
[10] = test system: A549 NSCLC
[11] = test system: SNB-19 CNS
[12] = test system: HL-60(TB) leukemia
[13] = test system: SK-MEL-28 melanoma
[14] = test system: RXF 393 renal

## C/C(=C\COc1ccc2ccc(=O)oc2c1)C1=CC(=O)C(C)(C)O1
[1]
  GI50: 2730 nM
  TGI: 6.64 µM and 8.96 µM
[2]
  GI50: 3.25 µM
  TGI: 15 µM and 20.2 µM
[3]
  TGI: 61.3 µM
[4]
  GI50: 2380 nM
  TGI: 7.24 µM and 9.92 µM
[5]
  TGI: 8.39 µM
[6]
  GI50: 7.22 µM
  TGI: 29.7 µM and 11.3 µM
[7]
  GI50: 2720 nM
  TGI: 13.3 µM and 6.95 µM
[8]
  TGI: 16 µM
[9]
  GI50: 3.06 µM
  TGI: 8.72 µM and 34.1 µM
[10]
  GI50: 4.18 µM
  TGI: 47.2 µM and 51.9 µM
[11]
  GI50: 2940 nM
  TGI: 8.22 µM and 30.5 µM
[12]
  GI50: 1760 nM
  TGI: 5.09 µM and 16.9 µM
[13]
  GI50: 4.82 µM
  TGI: 18.3 µM and 10.1 µM
[14]
  GI50: 2390 nM
  TGI: 12.2 µM and 5.61 µM
